Measured values as given in patent US7202265B2, “Indolinone combinatorial libraries and related products and methods for the treatment of disease” (Sugen, Inc., priority 1997, dated 2007).

molecular target: T1, FLK-1 receptor (Mus musculus, UniProt P35918); experiment: FLK-1 ELISA (catalytic activity of the FLK-1 receptor in FLK-1/NIH3T3 cells); type: cell-based; conditions: Table 2; read-out: FLK Kinase IC50
T1 construct: expressed in transfected cells; host or cells: NIH3T3 C7#3 (FLK-1/NIH3T3)
T1 sequence (P35918 20-1345): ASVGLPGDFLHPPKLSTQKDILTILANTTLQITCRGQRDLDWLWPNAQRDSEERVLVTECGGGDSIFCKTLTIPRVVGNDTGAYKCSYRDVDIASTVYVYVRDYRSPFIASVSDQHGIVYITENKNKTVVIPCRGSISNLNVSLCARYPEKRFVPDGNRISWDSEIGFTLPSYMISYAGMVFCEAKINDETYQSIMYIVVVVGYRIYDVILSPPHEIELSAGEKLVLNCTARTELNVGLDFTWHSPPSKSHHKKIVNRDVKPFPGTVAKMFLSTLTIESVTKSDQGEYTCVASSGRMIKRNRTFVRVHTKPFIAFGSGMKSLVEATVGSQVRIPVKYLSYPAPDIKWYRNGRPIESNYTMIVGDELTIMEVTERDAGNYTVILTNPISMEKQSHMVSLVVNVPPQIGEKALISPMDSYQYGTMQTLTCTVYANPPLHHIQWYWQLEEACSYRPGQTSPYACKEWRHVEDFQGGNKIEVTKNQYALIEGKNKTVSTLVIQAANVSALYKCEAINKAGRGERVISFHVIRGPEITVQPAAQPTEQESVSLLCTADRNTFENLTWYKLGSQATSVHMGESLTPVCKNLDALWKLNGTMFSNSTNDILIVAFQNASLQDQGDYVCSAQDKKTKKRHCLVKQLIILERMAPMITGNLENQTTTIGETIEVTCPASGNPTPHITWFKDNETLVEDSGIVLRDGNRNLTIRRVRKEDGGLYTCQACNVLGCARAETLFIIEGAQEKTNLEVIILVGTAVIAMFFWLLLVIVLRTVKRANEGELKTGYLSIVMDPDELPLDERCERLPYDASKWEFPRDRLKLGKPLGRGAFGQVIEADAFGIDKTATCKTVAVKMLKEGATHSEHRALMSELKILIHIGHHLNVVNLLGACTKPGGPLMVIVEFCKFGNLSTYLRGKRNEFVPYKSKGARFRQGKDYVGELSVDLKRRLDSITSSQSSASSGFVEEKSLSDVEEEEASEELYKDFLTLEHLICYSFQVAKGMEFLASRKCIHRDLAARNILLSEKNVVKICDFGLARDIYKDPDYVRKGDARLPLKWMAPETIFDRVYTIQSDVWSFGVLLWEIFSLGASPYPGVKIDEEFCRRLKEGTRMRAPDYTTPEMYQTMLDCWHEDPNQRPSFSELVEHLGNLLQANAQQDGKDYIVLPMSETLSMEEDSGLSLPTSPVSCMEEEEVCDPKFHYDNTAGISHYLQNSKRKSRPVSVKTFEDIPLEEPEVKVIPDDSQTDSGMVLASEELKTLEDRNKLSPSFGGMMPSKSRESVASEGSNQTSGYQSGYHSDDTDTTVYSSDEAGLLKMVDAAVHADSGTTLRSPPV
Method: An enzyme linked immunosorbent assay (ELISA) was conducted to measure the catalytic activity of the FLK-1 receptor and more specifically, the inhibition or activation of indolinone compounds on the catalytic activity of the FLK-1 receptor. Specifically, the following assay was conducted to measure catalytic activity of the FLK-1 receptor in FLK-1/NIH3T3 cells.
An ELISA assay was conducted to measure the kinase activity of the FLK-1 receptor and more specifically, the inhibition or activation of protein tyrosine kinase activity on the FLK-1 receptor. Specifically, the following assay was conducted to measure kinase activity of the FLK-1 receptor in FLK-1/NIH3T3 cells.
Materials. The following reagents and supplies were used: • a. […] PBS (Gibco Catalog No. 450–1300EB); • d. […] EDTA (0.5 M (pH 7.0) as a 100× stock); • h. Sodium ortho vanadate (0.5 M as a 100× stock); • i. Sodium pyro phosphate (0.2M as a 100× stock); • j. […] NIH3T3 C7#3 Cells (FLK-1 expressing cells); • l. […] FBS, Gibco (catalog no. 16000-028); • n.
Protocol. The following protocol was used for conducting the assay:
1. Coat Corning 96-well elisa plates with 1.0 μg per well Cappel Anti-rabbit IgG antibody in 0.1M Na2CO3 pH 9.6. Bring final volume to 150 μl per well. Coat plates overnight at 4° C. Plates can be kept up to two weeks when stored at 4° C.
2. Grow cells in Growth media(DMEM, supplemental with 2.0 mM L-Glutamine, 10% FBS) in suitable culture dishes until confluent at 37° C., 5% CO2.
4. Grow cells at least one day at 37° C., 5% CO2.
5. Wash cells with D-PBS 1×.
6. Add 200 μl/well of starvation media (DMEM, 2.0 mM 1-Glutamine, 0.1% FBS). Incubate overnight at 37° C., 5% CO2.
7. Dilute Compounds/Extracts 1:20 in polypropylene 96 well plates using starvation media. Dilute dimethylsulfoxide 1:20 for use in control wells.
8. Remove starvation media from 96 well cell culture plates and add 162 μl of fresh starvation media to each well.
9. Add 18 μl of 1:20 diluted Compound/Extract dilution (from step 7) to each well plus the 1:20 dimethylsulfoxide dilution to the control wells (+/−VEGF), for a final dilution of 1:200 after cell stimulation. Final dimethylsulfoxide is 0.5%. Incubate the plate at 37° C., 5% CO2 for two hours.
10. Remove unbound antibody from ELISA plates by inverting plate to remove liquid. […] Pat the plate on a paper towel to remove excess liquid and bubbles.
Incubate plate thirty minutes while shaking on a microtiter plate shaker.
Wash plate 3 times as described in step 10.
Incubate plate for. thirty minutes while shaking.

Compound	IC50
Cn1cc(/C=C2\C(=O)Nc3ccccc32)c2ccccc21	0.7 µM
Cc1cccc2c1/C(=C/c1cn(C)c3ccccc13)C(=O)N2	7.7 µM
Cn1cc(/C=C2\C(=O)Nc3ccc(N)cc32)c2ccccc21	2.5 µM
Cn1cc(/C=C2\C(=O)Nc3ccc(F)cc32)c2ccccc21	14 µM
COc1ccc2[nH]cc(/C=C3\C(=O)Nc4ccccc43)c2c1	13 µM

same assay, conditions: Table 6; read-out: FLK Kinase IC50

Compound	IC50
Nc1ccc2c(c1)/C(=C/c1cc3c([nH]1)CCCC3)C(=O)N2	1.2 µM
O=C1Nc2ccccc2/C1=C/c1cc2c([nH]1)CCCC2	1.4 µM
O=C1Nc2ccc(Cl)cc2/C1=C/c1cc2c([nH]1)CCCC2	5 µM

same assay, conditions: Table 8

Compound	Activity EC200
Cc1cc(C)c(/C=C2\C(=O)Nc3ccc(C(=O)O)cc32)[nH]1	ActivityEC200 = 2.8 μm
CCc1cc(CC)c(/C=C2\C(=O)Nc3ccc(C(=O)O)cc32)[nH]1	ActivityEC200 = 2.8 μm
CC(C)c1cc(C(C)C)c(/C=C2\C(=O)Nc3ccc(C(=O)O)cc32)[nH]1	ActivityEC200 = 10 μm
Cc1cc(C)c(/C=C2\C(=O)Nc3ccc(CCC(=O)O)cc32)[nH]1	ActivityEC200 = 32 μm
Cc1ccc(/C=C2\C(=O)Nc3ccc(CCC(=O)O)cc32)s1	ActivityEC200 > 100 μm
Cc1ccc(/C=C2\C(=O)Nc3ccc(C(=O)O)cc32)s1	ActivityEC200 = 46 μm

same assay, conditions: Table 10; read-out: FLK Kinase IC50

Compound	IC50
COC(=O)CCc1c[nH]c(/C=C2\C(=O)Nc3ccc(N)cc32)c1C	4.7 µM
COC(=O)CCc1c[nH]c(/C=C2\C(=O)Nc3ccc(Cl)cc32)c1C	5.6 µM
COC(=O)CCc1c[nH]c(/C=C2\C(=O)Nc3cccc(C)c32)c1C	10.8 µM
COC(=O)CCc1c[nH]c(/C=C2\C(=O)Nc3ccccc32)c1C	12.5 µM
CCOC(=O)c1c(C)c(/C=C2\C(=O)Nc3ccccc32)n(C)c1C	0.97 µM
CCc1c(C)[nH]c(/C=C2\C(=O)Nc3ccc(N)cc32)c1C	1.5 µM
Cc1cc(C)n(C)c1/C=C1\C(=O)Nc2ccc(N)cc21	1.1 µM
Cc1cc(C)c(/C=C2\C(=O)Nc3cccc(C)c32)[nH]1	7.3 µM
CCc1cc(CC)c(/C=C2\C(=O)Nc3ccc(N)cc32)[nH]1	5.6 µM
CCc1cc(CC)c(/C=C2\C(=O)Nc3ccccc32)[nH]1	8.1 µM
CCc1cc(CC)c(/C=C2\C(=O)Nc3cccc(C)c32)[nH]1	17.3 µM
COc1ccc(/C=C2\C(=O)Nc3ccccc32)cc1O	2.9 µM
O=C1Nc2ccc(Cl)cc2/C1=C/c1ccc(O)c(Br)c1	5.2 µM
Cc1cc(Cl)cc2c1NC(=O)/C2=C\c1cc(O)c(O)c(Br)c1	18.5 µM
O=C1Nc2c(Br)cc(Cl)cc2/C1=C/c1cc(O)c(O)c(Br)c1	8.8 µM
CN(C)CCCOc1ccc(/C=C2\C(=O)Nc3ccccc32)cc1	4 µM
Cc1cccc2c1/C(=C/c1ccc(OCCCN(C)C)cc1)C(=O)N2	8 µM
CN(C)CCCOc1ccc(/C=C2\C(=O)Nc3ccc(Cl)cc32)cc1	11.5 µM
CN(C)CCCOc1ccc(/C=C2\C(=O)Nc3ccc(N)cc32)cc1	13.7 µM
COc1ccc(OC)c(/C=C2\C(=O)Nc3cccc(C)c32)c1	10.4 µM
COc1c(O)ccc(/C=C2\C(=O)Nc3ccc(Cl)cc32)c1[N+](=O)[O-]	10.7 µM
CC(C)(C)c1cc(/C=C2\C(=O)Nc3ccc([N+](=O)[O-])cc32)cc([N+](=O)[O-])c1OCc1ccccc1	16.4 µM

system: human MET; experiment: MET biochemical kinase assay; set-up: concentration or dose not given beside the values; conditions: not given
How it was run: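 MET captured from cell lysates onto plates coated with goat anti-rabbit Fc plus rabbit polyclonal anti-MET cytoplasmic-domain antibody; after washing, compounds added with kinase buffer containing ATP and divalent metal ions. Receptor tyrosine phosphorylation detected by HRP-conjugated anti-phosphotyrosine antibody, TMB colorimetric read-out.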

Compound	Met Kinase % Inhibition
O=C1Nc2ccc(CCCl)cc2C1=Cc1cccc(Oc2ccccc2)c1 [10729/G06]	26.0%
O=C1Nc2c(Br)cc(Br)cc2C1=Cc1coc2ccc(Cl)cc2c1=O [10730/A06]	61.0%
O=C1Nc2c(Br)cc(Br)cc2C1=Cc1cc2ccccc2nc1Cl [10730/A08]	69.0%
Cc1cc(C=C2C(=O)Nc3c(Br)cc(Br)cc32)oc1C [10730/A11]	91.0%
CNS(=O)(=O)c1ccc2c(c1)C(=Cc1cc3ccccc3nc1Cl)C(=O)N2 [10730/D08]	−13.6%
CNS(=O)(=O)c1ccc2c(c1)C(=Cc1cc(C)c(C)o1)C(=O)N2 [10730/D11]	9.7%
CC(=O)n1cc(C=C2C(=O)Nc3ccc(S(=O)(=O)Nc4ccc(C(F)(F)F)cc4)cc32)c2ccccc21 [10730/E05]	49.0%
COc1ccc(C=C2C(=O)Nc3ccc(S(=O)(=O)N4CCOCC4)cc32)c(OC)c1OC [10730/F02]	−6.2%
COc1cc(OC)c(OC)cc1C=C1C(=O)Nc2ccc(S(=O)(=O)N3CCOCC3)cc21 [10730/F03]	−0.6%
COc1cc(C=C2C(=O)Nc3ccc(S(=O)(=O)N4CCOCC4)cc32)cc(OC)c1OC [10730/F04]	36.0%
Cc1ccc2occ(C=C3C(=O)Nc4c(Br)cc(Br)cc43)c(=O)c2c1 [10731/A06]	53.0%
C=C(C)C1CC=C(C=C2C(=O)Nc3ccc(I)cc32)CC1 (centres unmarked) [10731/B04]	71.0%
CC(C)c1ccc2occ(C=C3C(=O)Nc4ccc(I)cc43)c(=O)c2c1 [10731/B05]	86.0%
Cc1c(Br)ccc2c1C(=Cc1coc3ccc([N+](=O)[O-])cc3c1=O)C(=O)N2 [10731/C07]	−11.6%
CCn1c2ccccc2c2cc(C=C3C(=O)Nc4ccc(S(=O)(=O)NC)cc43)ccc21 [10731/D02]	8.7%
O=C1Nc2ccc(S(=O)(=O)Nc3ccc(C(F)(F)F)cc3)cc2C1=Cc1c[nH]c(=O)[nH]c1=O [10731/E08]	59.0%
COc1ccc2[nH]cc(C=C3C(=O)Nc4ccc(S(=O)(=O)Nc5ccc(C(F)(F)F)cc5)cc43)c2c1 [10731/E09]	27.0%
C=C(C)C1CC=C(C=C2C(=O)Nc3ccc(S(=O)(=O)N4CCOCC4)cc32)CC1 (centres unmarked) [10731/F04]	17.0%
COc1ccc2[nH]cc(C=C3C(=O)Nc4ccc(CCCl)cc43)c2c1 [10731/G09]	4.4%
CC(C)(C)c1cc(C=C2C(=O)Nc3c(Br)cc(Br)cc32)ccc1OCc1ccccc1 [10732/A06]	5.7%
O=C1Nc2ccc(I)cc2C1=CC(c1cccs1)C(F)(F)F (centres unmarked) [10732/B02]	78.0%
COc1c(C(C)C)cc(C=C2C(=O)Nc3ccc(Br)c(C)c32)cc1C(C)C [10732/C03]	14.0%
Cc1c(Br)ccc2c1C(=Cc1cc(Cl)c(OCc3ccccc3)c(C(C)(C)C)c1)C(=O)N2 [10732/C10]	43.0%
COc1c(C(C)C)cc(C=C2C(=O)Nc3ccc(S(=O)(=O)Nc4ccc(C(F)(F)F)cc4)cc32)cc1C(C)C [10732/E03]	3.9%

Compound	Met Kinase % Inhibition
CC(C)c1cc(C=C2C(=O)Nc3ccc(S(=O)(=O)Nc4ccc(C(F)(F)F)cc4)cc32)cc(C(C)C)c1Oc1ccccc1 [10732/E04]	8.2%
COc1ccc(C=C2C(=O)Nc3ccc(S(=O)(=O)Nc4ccc(C(F)(F)F)cc4)cc32)cc1C(C)(C)C [10732/E05]	2.2%
CC(C)(C)c1cc(C=C2C(=O)Nc3ccc(S(=O)(=O)Nc4ccc(C(F)(F)F)cc4)cc32)ccc1OCc1ccccc1 [10732/E06]	−2.1%
CC(C)(C)c1cc(C=C2C(=O)Nc3ccc(S(=O)(=O)Nc4ccc(C(F)(F)F)cc4)cc32)cc(Cl)c1OCc1ccccc1 [10732/E10]	1.6%
COc1c(I)cc(C=C2C(=O)Nc3ccc(CCCl)cc32)cc1C(C)(C)C [10732/G11]	63.0%
COc1c(C(C)(C)C)cc(C=C2C(=O)Nc3c(Br)cc(Br)cc32)cc1C(C)(C)C [10733/A04]	24.0%
COc1c(C)cc(C=C2C(=O)Nc3ccc(Br)c(C)c32)cc1C [10733/C06]	4.1%
CNS(=O)(=O)c1ccc2c(c1)C(=Cc1cc(C)c(OC)c(C)c1)C(=O)N2 [10733/D06]	−19.4%
CNS(=O)(=O)c1ccc2c(c1)C(=Cc1cc(C)c(OCc3ccccc3)c(C)c1)C(=O)N2 [10733/D07]	−6.8%
CNS(=O)(=O)c1ccc2c(c1)C(=Cc1cc(Br)cc(OC)c1O)C(=O)N2 [10733/D08]	80.0%
CC(C)(C)c1cc(C=C2C(=O)Nc3ccc(S(=O)(=O)Nc4ccc(C(F)(F)F)cc4)cc32)cc(C(C)(C)C)c1OCc1ccccc1 [10733/E05]	2.9%
Cc1cc(C=C2C(=O)Nc3ccc(S(=O)(=O)Nc4ccc(C(F)(F)F)cc4)cc32)cc(C)c1OCc1ccccc1 [10733/E07]	−10.1%
Cc1cc(C=C2C(=O)Nc3ccc(S(=O)(=O)N4CCOCC4)cc32)cc(C)c1OCc1ccccc1 [10733/F07]	−16.4%
CC(C)(C)c1cc(C=C2C(=O)Nc3ccc(CCCl)cc32)cc(C(C)(C)C)c1OCc1ccccc1 [10733/G05]	1.8%
COc1c(C)cc(C=C2C(=O)Nc3ccc(CCCl)cc32)cc1C [10733/G06]	0.8%
Cc1cc(C=C2C(=O)Nc3ccc(CCCl)cc32)cc(C)c1OCc1ccccc1 [10733/G07]	8.5%
COc1cc(Br)cc(C=C2C(=O)Nc3ccc(CCCl)cc32)c1O [10733/G08]	79.0%
O=C1Nc2c(Br)cc(Br)cc2C1=Cc1cc(Cl)ccc1O [10734/A04]	68.0%
CCOc1cccc(C=C2C(=O)Nc3ccc(S(=O)(=O)NC)cc32)c1O [10734/D02]	46.0%
CCN(CC)c1ccc(C=C2C(=O)Nc3ccc(S(=O)(=O)NC)cc32)c(O)c1 [10734/D05]	55.0%
CNS(=O)(=O)c1ccc2c(c1)C(=Cc1cc(Br)cc(Br)c1O)C(=O)N2 [10734/D07]	92.0%
CNS(=O)(=O)c1ccc2c(c1)C(=Cc1ccc(O)c(Br)c1)C(=O)N2 [10734/D09]	88.0%
CCOc1cccc(C=C2C(=O)Nc3ccc(S(=O)(=O)N4CCOCC4)cc32)c1O [10734/F02]	55.0%
